This is an account of results in patent US20080096449A1, “USE OF METALLIC GLUCONATE SALTS IN THE PRODUCTION OF ANTIMICROBIALLY ACTIVE SUBSTRATES” (priority 2002, published 2008).

Experiment in all cases: Minimum inhibitory concentration (MIC)
Common to all, as to assay type: cell-based

The subject of test [1] is Escherichia coli ATCC 11229. Conditions: strain EC.
The subject of test [2] is Pseudomonas aeruginosa ATCC 9027. The following applies: strain PA.
Test [3] deals with Candida albicans ATCC 10231. The following applies: strain CA.
The test system of test [4] is Aspergillus niger ATCC 16404. The following applies: strain AN.
Test [5] deals with Staphylococcus aureus ATCC 6538. Conditions: strain SA.

As for zinc gluconate, the MIC stood at 6250 ppm in test [1]; 12500 ppm in test [2]; 3120 ppm in test [3]; 6250 ppm in test [4]; 5000 ppm in test [5].
